# Measurements from PubChem BioAssay (NCI).
#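 Cultured in 96-well plates, cells were exposed to test compound for 48 hours across five concentrations. At the GI50, growth is halved. The concentration for full growth arrest is given as TGI.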
# How the values were obtained:
# Assay in all cases: DTP human tumour cell line panel, 48 h
# COLO 205 colon = test system: COLO 205 colon
# EKVX NSCLC = test system: EKVX NSCLC
# IGROV1 ovarian = test system: IGROV1 ovarian
# LOX IMVI melanoma = test system: LOX IMVI melanoma
# NCI-H23 lung = test system: NCI-H23 lung
# NCI-H522 lung = test system: NCI-H522 lung
# RPMI-8226 leukemia = test system: RPMI-8226 leukemia
# SNB-19 CNS = test system: SNB-19 CNS
# TK-10 renal = test system: TK-10 renal
# HL-60(TB) leukemia = test system: HL-60(TB) leukemia
Structure (SMILES),TGI (COLO 205 colon) [µM],TGI (EKVX NSCLC) [µM],TGI (IGROV1 ovarian) [µM],TGI (LOX IMVI melanoma) [µM],TGI (NCI-H23 lung) [µM],TGI (NCI-H522 lung) [µM],TGI (RPMI-8226 leukemia) [µM],TGI (SNB-19 CNS) [µM],TGI (TK-10 renal) [µM],TGI (HL-60(TB) leukemia) [µM],GI50 (COLO 205 colon) [µM],GI50 (HL-60(TB) leukemia) [µM],GI50 (IGROV1 ovarian) [µM],GI50 (LOX IMVI melanoma) [µM],GI50 (NCI-H23 lung) [µM],GI50 (NCI-H522 lung) [µM],GI50 (SNB-19 CNS) [µM],GI50 (TK-10 renal) [µM],GI50 (EKVX NSCLC) [µM],GI50 (RPMI-8226 leukemia) [µM]
CC(=O)Nc1ccc(/C=C(\NC(=O)c2ccccc2)c2nc3ccc4c(c3[nH]2)C(=O)c2ccccc2C4=O)cc1,> 100,> 100,> 100,> 100,> 100,> 100,> 100,> 100,> 100,–,–,–,–,–,–,–,–,–,–,–
COC(=O)c1c[nH]cc1CCc1c[nH]cc1C(=O)OC,> 100,> 100,> 100,> 100,> 100,> 100,–,> 100,> 100,> 100,–,–,–,–,–,–,–,–,–,–
C/C(CN1C(=O)c2ccccc2C1=O)=N\NS(=O)(=O)c1cccc([N+](=O)[O-])c1,> 100,> 100,> 100,–,> 100,> 100,> 100,> 100,> 100,> 100,–,–,–,–,–,–,–,–,–,–
Cc1cc2c(cc1C)NC(=O)C(NC(=O)/C=C/c1ccccc1)C=N2 (centres undefined),34.6,> 100,> 100,55.3,–,66,75.9,> 100,> 100,43.5,–,–,–,–,–,–,–,–,–,–
Cn1c(C(N)=O)cc2c1-c1nc(Nc3ccccc3)ncc1CCC2,17.7,–,24.2,24.8,32.9,22.7,–,> 100,52.3,49.7,4.77,6.77,3.87,4.86,4.91,4.13,11.5,3.97,–,–
Cc1ccc(NC(=O)c2[nH]c(=S)nc(N)c2-c2ccccc2C)cc1C,> 100,> 100,> 100,> 100,> 100,> 100,> 100,> 100,> 100,–,–,–,–,–,–,–,–,–,–,–
O=[N+]([O-])c1cnc(Sc2ccncn2)c([N+](=O)[O-])c1,3.58,–,31.4,10.6,37.7,3.45,–,> 100,3.21,62.9,1.98,23.1,16.7,3.1,14.3,1.82,32.8,1.74,–,–
Cc1ccc(C)c(NC(=O)C(=O)C2C(=O)C3=C(CC2(C)C)Nc2ccccc2S3)c1 (centres undefined),> 100,> 100,> 100,> 100,> 100,> 100,–,> 100,> 100,> 100,–,–,–,–,–,–,–,–,–,–
CCCCCCCCCCCCN1C(C)=CS/C1=C\C=C\c1scc(C)[n+]1CCCCCCCCCCCC,4.13,–,–,5.96,4.99,5.11,–,10.3,3.9,–,1.26,–,–,1.79,0.999,1.7,1.91,0.934,–,–
COc1cccc(N2C(=O)c3c(c4[nH]c5ccccc5c4c4ccc(C(C)(C)C)cc34)C2=O)c1,> 100,> 100,> 100,> 100,> 100,> 100,–,> 100,> 100,–,–,–,–,–,–,–,–,–,–,–
CN(C)CCNC(=O)c1ccc(Nc2nc3ccccc3c3occc23)cc1,59.7,28.7,10.3,3.66,21.3,29.8,9.05,39,2.54,–,22.6,–,2.18,1.84,8.36,13.3,18.8,1.06,11.7,2.9
CCCCCCCCCCCCCS(=O)(=O)O,> 100,> 100,> 100,> 100,> 100,> 100,–,> 100,> 100,> 100,–,–,–,–,–,–,–,–,–,–
CCCN1C(=O)C/C(=C\C(C)=O)Nc2ccccc21,> 100,> 100,> 100,> 100,> 100,> 100,–,> 100,> 100,–,–,–,–,–,–,–,–,–,–,–
CCOC(=N)CC(=O)Nc1ccc(Cl)cc1,> 100,> 100,> 100,> 100,> 100,> 100,–,> 100,> 100,> 100,–,–,–,–,–,–,–,–,–,–
CC(C)C[C@H](NC(=O)[C@H](Cc1ccccc1)n1ccc(N2CCCCC2)cc1=O)B(O)O,> 100,–,> 100,–,> 100,2.25,> 100,> 100,15.6,–,0.853,–,5.1,–,1.59,0.305,0.956,0.375,–,0.321
C/C(=N\NC(=S)N1CCCCCC1)c1nccnc1C,–,–,–,> 100,–,–,> 100,–,> 100,2.95,–,–,–,–,–,–,–,–,–,–
Cc1ccc(C)c(NC(=O)C(=O)C(c2cnc3ccc([N+](=O)[O-])cc3n2)[N+](=O)[O-])c1 (centres undefined),> 100,> 100,83.8,–,> 100,> 100,39.4,> 100,> 100,45.2,–,–,–,–,–,–,–,–,–,–
Cc1ccc(Nc2nc(NCCO)c3ccccc3n2)cc1C,3.73,–,23.8,12.4,22.5,18,9.46,24.8,23.3,31,1.81,11,9.65,3.55,9.74,4.68,11.5,11.1,–,2.55
Cn1ncc(=S)[nH]c1=S,> 100,> 100,> 100,> 100,> 100,> 100,> 100,> 100,> 100,–,–,–,–,–,–,–,–,–,–,–
O=C(Nc1ccc(-c2nc3cc4ccccc4cc3[nH]2)cc1)c1cccc(Br)c1,40,–,42.2,20.1,50.3,31.8,56.8,> 100,11.3,48.4,8.87,16.6,15,6.85,19.2,12.1,39.2,4,–,10.6
O=S(=O)([O-])[O-].[OH3+].[OH3+].[OH3+].[Ru+2].c1ccccc1,> 100,> 100,> 100,–,> 100,–,> 100,> 100,> 100,> 100,> 100,> 100,> 100,–,> 100,–,> 100,> 100,> 100,> 100
O=[N+]([O-])c1ccc(N2CCN(Cc3ccccc3)CC2)c2c1no[n+]2[O-],3.04,–,2.66,1.67,5.68,2.16,4.64,6.51,3.23,2.99,1.48,0.473,0.951,0.558,1.98,0.682,2.23,1.75,–,1.76
CC(=O)N(C)OC(=O)CC(=O)c1ccccc1,> 100,–,> 100,> 100,> 100,> 100,> 100,> 100,> 100,> 100,–,–,–,–,–,–,–,–,–,–
CCCc1c2c([nH]c(=O)c1C)C(=O)c1[nH]c(=O)c(C)c(CCC)c1C2=O,55.1,–,88.4,55.3,57.4,–,–,55,> 100,24.8,–,–,–,–,–,–,–,–,–,–
CNc1ccccc1C(=O)N/N=C/C=C/c1ccccc1,10.3,–,> 100,> 100,> 100,11.3,> 100,> 100,> 100,18.5,0.671,0.566,4.41,1.34,7.93,0.565,7.01,3.33,–,2.68
CC(=O)N1CCC2(C=Nc3ccccc32)CC1,> 100,> 100,> 100,> 100,> 100,–,> 100,–,> 100,> 100,–,–,–,–,–,–,–,–,–,–
COc1cc(Nc2cnc3cc(C(F)(F)F)ccc3n2)cc(OC)c1OC,> 100,> 100,–,> 100,> 100,–,> 100,> 100,> 100,> 100,–,–,–,–,–,–,–,–,–,–
Nc1ccccc1C#CC#Cc1ccccc1N,75.7,–,86.2,19.4,22,38.6,> 100,> 100,32.9,> 100,22.5,3.97,18.6,6.78,4.04,11.5,> 100,12.5,–,8.08
